Test results as given in patent US20160002204A1 (Board of Regents, The University of Texas System, priority 2014, published 2016).

What was measured:
[1] = tested on: A549 cells; experiment: A549 proliferation (viability) assay, Cell Titer Fluor, 72 hours; type: cell-based; settings: Homo sapiens
In short: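 Compound was added to A549 cells (1000/well, pre-grown 24 h in RPMI 1640 plus 10% dialyzed FBS) at 0.5% DMSO and left 72 h under 37 °C, 5% CO2, ambient O2. Live-cell fluorescence (Cell Titer Fluor) gave the EC50.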

[2] = molecular target: T1, GLS1 (purified recombinant human GAC) (Homo sapiens, UniProt O94925); experiment: GLS1 enzymatic activity assay (dual-coupled, Amplex UltraRed/resorufin); type: biochemical
T1 sequence (O94925 55-598 isoform O94925-3 limits assumed): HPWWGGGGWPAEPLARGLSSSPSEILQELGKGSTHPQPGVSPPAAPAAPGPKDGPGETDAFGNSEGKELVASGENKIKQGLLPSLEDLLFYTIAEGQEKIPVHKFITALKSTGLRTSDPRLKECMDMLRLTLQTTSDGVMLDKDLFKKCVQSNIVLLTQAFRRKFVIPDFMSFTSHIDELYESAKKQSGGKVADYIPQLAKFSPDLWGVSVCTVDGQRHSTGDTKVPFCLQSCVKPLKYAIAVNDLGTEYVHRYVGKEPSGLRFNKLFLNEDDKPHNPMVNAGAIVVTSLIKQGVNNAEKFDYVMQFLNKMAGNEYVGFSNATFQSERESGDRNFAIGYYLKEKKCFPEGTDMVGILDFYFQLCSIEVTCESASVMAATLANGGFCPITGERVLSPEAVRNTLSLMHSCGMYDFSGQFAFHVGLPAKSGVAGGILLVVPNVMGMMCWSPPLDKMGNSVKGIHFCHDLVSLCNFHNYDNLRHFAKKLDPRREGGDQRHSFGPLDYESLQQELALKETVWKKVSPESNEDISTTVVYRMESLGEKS
In short: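 GAC activity measured by coupling glutamate to glutamate oxidase and HRP, generating resorufin from Amplex UltraRed. Enzyme (2 nM) preincubated with 50 mM potassium phosphate 10 min at room temperature, then inhibitor 10 min; 1 mM glutamine substrate, 1% DMSO. Fluorescence 530/590 nm, kinetic or 20-min endpoint; IC50 from four-parameter logistic fit.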

Row | SMILES | EC50 [1] [nM] | IC50 [2] [nM]
1 | O=C(CC1CCCCC1)Nc1ccn(CCC(F)Cn2cc(C(=O)NCc3cccc(C(F)(F)F)n3)nn2)c(=O)c1F (stereo not drawn) [Example 262, 1-{4-[4-(2-cyclohexylacetamido)-3-fluoro-2-oxo-1,2-dihydropyridin-1-yl]-2-fluorobutyl}-N-{[6-(trifluoromethyl)pyridin-2-yl]methyl}-1H-1,2,3-triazole-4-carboxamide] | < 100 | < 100
2 | O=C(Cc1ccccc1)Nc1cnn(CCC(F)Cn2cc(C(=O)NCc3cccc(OC(F)(F)F)c3)nn2)c(=O)c1 (stereo not drawn) [Example 263, 1-{2-fluoro-4-[6-oxo-4-(2-phenylacetamido)-1,6-dihydropyridazin-1-yl]butyl}-N-{[3-(trifluoromethoxy)phenyl]methyl}-1H-1,2,3-triazole-4-carboxamide] | 100 to 500 | < 100
3 | O=C(CC1CCCCC1)Nc1ccn(CCC(F)Cn2cc(C(=O)NCc3cccc(C(F)(F)F)c3)nn2)c(=O)c1F (stereo not drawn) [Example 264, 1-{4-[4-(2-cyclohexylacetamido)-3-fluoro-2-oxo-1,2-dihydropyridin-1-yl]-2-fluorobutyl}-N-{[3-(trifluoromethyl)phenyl]methyl}-1H-1,2,3-triazole-4-carboxamide] | < 100 | < 100
4 | O=C(CC1CCCCC1)Nc1ccn(CCC(F)Cn2cc(C(=O)NCc3cc(Cl)ccc3F)nn2)c(=O)c1F (stereo not drawn) [Example 265, N-[(5-chloro-2-fluorophenyl)methyl]-1-{4-[4-(2-cyclohexylacetamido)-3-fluoro-2-oxo-1,2-dihydropyridin-1-yl]-2-fluorobutyl}-1H-1,2,3-triazole-4-carboxamide] | < 100 | < 100
5 | Cc1ccc(CNC(=O)c2cn(CC(F)CCn3ccc(NC(=O)CC4CCCCC4)c(F)c3=O)nn2)cn1 (stereo not drawn) [Example 266, 1-{4-[4-(2-cyclohexylacetamido)-3-fluoro-2-oxo-1,2-dihydropyridin-1-yl]-2-fluorobutyl}-N-[(6-methylpyridin-3-yl)methyl]-1H-1,2,3-triazole-4-carboxamide] | < 100 | < 100
6 | O=C(CC1CCCCC1)Nc1ccn(CCC(F)Cn2cc(C(=O)NCc3ccccn3)nn2)c(=O)c1F (stereo not drawn) [Example 267, 1-{4-[4-(2-cyclohexylacetamido)-3-fluoro-2-oxo-1,2-dihydropyridin-1-yl]-2-fluorobutyl}-N-(pyridin-2-ylmethyl)-1H-1,2,3-triazole-4-carboxamide] | < 100 | < 100
7 | CC(C)(O)c1ccc(CNC(=O)c2cn(CC(F)CCn3ccc(NC(=O)CC4CCCCC4)c(F)c3=O)nn2)cn1 (stereo not drawn) [Example 268, 1-{4-[4-(2-cyclohexylacetamido)-3-fluoro-2-oxo-1,2-dihydropyridin-1-yl]-2-fluorobutyl}-N-{[6-(2-hydroxypropan-2-yl)pyridin-3-yl]methyl}-1H-1,2,3-triazole-4-carboxamide] | 100 to 500 | < 100
8 | O=C(CN1CCCCC1)Nc1ccn(CCC(F)Cn2cc(C(=O)NCc3cccc(OC(F)(F)F)c3)nn2)c(=O)c1 (stereo not drawn) [Example 269, 1-(2-fluoro-4-{2-oxo-4-[2-(piperidin-1-yl)acetamido]-1,2-dihydropyridin-1-yl}butyl)-N-{[3-(trifluoromethoxy)phenyl]methyl}-1H-1,2,3-triazole-4-carboxamide] | < 100 | < 100
9 | O=C(CN1CCCC1)Nc1ccn(CCC(F)Cn2cc(C(=O)NCc3cccc(OC(F)(F)F)c3)nn2)c(=O)c1 (stereo not drawn) [Example 270, 1-(2-fluoro-4-{2-oxo-4-[2-(pyrrolidin-1-yl)acetamido]-1,2-dihydropyridin-1-yl}butyl)-N-{[3-(trifluoromethoxy)phenyl]methyl}-1H-1,2,3-triazole-4-carboxamide] | 500 to 5000 | 100 to 500
10 | CC(C)(C)OC(=O)N1CCN(CC(=O)Nc2ccn(CCC(F)Cn3cc(C(=O)NCc4cccc(OC(F)(F)F)c4)nn3)c(=O)c2)CC1 (stereo not drawn) [Example 271, tert-butyl 4-{[(1-{3-fluoro-4-[4-({[3-(trifluoromethoxy)phenyl]methyl}carbamoyl)-1H-1,2,3-triazol-1-yl]butyl}-2-oxo-1,2-dihydropyridin-4-yl)carbamoyl]methyl}piperazine-1-carboxylate] | < 100 | < 100
11 | COCC1CCN(CC(=O)Nc2ccn(CCC(F)Cn3cc(C(=O)NCc4cccc(OC(F)(F)F)c4)nn3)c(=O)c2)CC1 (stereo not drawn) [Example 272, 1-[2-fluoro-4-(4-{2-[4-(methoxymethyl)piperidin-1-yl]acetamido}-2-oxo-1,2-dihydropyridin-1-yl)butyl]-N-{[3-(trifluoromethoxy)phenyl]methyl}-1H-1,2,3-triazole-4-carboxamide] | 100 to 500 | < 100
12 | COC(=O)C1CCN(CC(=O)Nc2ccn(CCC(F)Cn3cc(C(=O)NCc4cccc(OC(F)(F)F)c4)nn3)c(=O)c2)CC1 (stereo not drawn) [Example 273, methyl 1-{[(1-{3-fluoro-4-[4-({[3-(trifluoromethoxy)phenyl]methyl}carbamoyl)-1H-1,2,3-triazol-1-yl]butyl}-2-oxo-1,2-dihydropyridin-4-yl)carbamoyl]methyl}piperidine-4-carboxylate] | 500 to 5000 | < 100
13 | O=C(CN1CCCC(F)(F)C1)Nc1ccn(CCC(F)Cn2cc(C(=O)NCc3cccc(OC(F)(F)F)c3)nn2)c(=O)c1 (stereo not drawn) [Example 274, 1-(4-{4-[2-(3,3-difluoropiperidin-1-yl)acetamido]-2-oxo-1,2-dihydropyridin-1-yl}-2-fluorobutyl)-N-{[3-(trifluoromethoxy)phenyl]methyl}-1H-1,2,3-triazole-4-carboxamide] | < 100 | < 100
14 | O=C(CN1CCCC(F)C1)Nc1ccn(CCC(F)Cn2cc(C(=O)NCc3cccc(OC(F)(F)F)c3)nn2)c(=O)c1 (stereo not drawn) [Example 275, 1-(2-fluoro-4-{4-[2-(3-fluoropiperidin-1-yl)acetamido]-2-oxo-1,2-dihydropyridin-1-yl}butyl)-N-{[3-(trifluoromethoxy)phenyl]methyl}-1H-1,2,3-triazole-4-carboxamide] | < 100 | < 100
15 | CC1(C)CN(CC(=O)Nc2ccn(CCC(F)Cn3cc(C(=O)NCc4cccc(OC(F)(F)F)c4)nn3)c(=O)c2)CCO1 (stereo not drawn) [Example 276, 1-(4-{4-[2-(2,2-dimethylmorpholin-4-yl)acetamido]-2-oxo-1,2-dihydropyridin-1-yl}-2-fluorobutyl)-N-{[3-(trifluoromethoxy)phenyl]methyl}-1H-1,2,3-triazole-4-carboxamide] | 100 to 500 | < 100
16 | CC(C)(C)OC(=O)N1CC(CC(=O)Nc2ccn(CCC(F)Cn3cc(C(=O)NCc4cccc(OC(F)(F)F)c4)nn3)c(=O)c2)C1 (stereo not drawn) [Example 277, tert-butyl 3-{[(1-{3-fluoro-4-[4-({[3-(trifluoromethoxy)phenyl]methyl}carbamoyl)-1H-1,2,3-triazol-1-yl]butyl}-2-oxo-1,2-dihydropyridin-4-yl)carbamoyl]methyl}azetidine-1-carboxylate] | 100 to 500 | < 100
17 | CC1CN(CC(=O)Nc2ccn(CCC(F)Cn3cc(C(=O)NCc4cccc(OC(F)(F)F)c4)nn3)c(=O)c2)CCO1 (stereo not drawn) [Example 278, 1-(2-fluoro-4-{4-[2-(2-methylmorpholin-4-yl)acetamido]-2-oxo-1,2-dihydropyridin-1-yl}butyl)-N-{[3-(trifluoromethoxy)phenyl]methyl}-1H-1,2,3-triazole-4-carboxamide] | 100 to 500 | < 100
18 | CS(=O)(=O)N1CCN(CC(=O)Nc2ccn(CCC(F)Cn3cc(C(=O)NCc4cccc(OC(F)(F)F)c4)nn3)c(=O)c2)CC1 (stereo not drawn) [Example 279, 1-(2-fluoro-4-{4-[2-(4-methanesulfonylpiperazin-1-yl)acetamido]-2-oxo-1,2-dihydropyridin-1-yl}butyl)-N-{[3-(trifluoromethoxy)phenyl]methyl}-1H-1,2,3-triazole-4-carboxamide] | > 5000 | < 100
19 | O=C(CC1CCNCC1)Nc1ccn(CCC(F)Cn2cc(C(=O)NCc3cccc(OC(F)(F)F)c3)nn2)c(=O)c1 (stereo not drawn) [Example 280, 1-(2-fluoro-4-{2-oxo-4-[2-(piperidin-4-yl)acetamido]-1,2-dihydropyridin-1-yl}butyl)-N-{[3-(trifluoromethoxy)phenyl]methyl}-1H-1,2,3-triazole-4-carboxamide] | 500 to 5000 | 100 to 500
20 | CCOC(=O)N1CCC(CC(=O)Nc2ccn(CCC(F)Cn3cc(C(=O)NCc4cccc(OC(F)(F)F)c4)nn3)c(=O)c2)CC1 (stereo not drawn) [Example 281, ethyl 4-{[(1-{3-fluoro-4-[4-({[3-(trifluoromethoxy)phenyl]methyl}carbamoyl)-1H-1,2,3-triazol-1-yl]butyl}-2-oxo-1,2-dihydropyridin-4-yl)carbamoyl]methyl}piperidine-1-carboxylate] | < 100 | < 100
21 | Nc1ccn(CCC(F)Cn2cc(C(=O)NCc3cccc(OC(F)(F)F)c3)nn2)c(=O)c1F (stereo not drawn) [Example 282, 1-[4-(4-amino-3-fluoro-2-oxo-1,2-dihydropyridin-1-yl)-2-fluorobutyl]-N-{[3-(trifluoromethoxy)phenyl]methyl}-1H-1,2,3-triazole-4-carboxamide] | > 5000 | 500 to 5000
